Measured values: patent US20250353825A1, “CANNABICYCLOL DERIVATIVES AND PREPARATION METHODS THEREOF” (priority 2023, published 2025)
≈ marks a conversion by molar mass, not a printed value.

What was measured:
Format in all cases: cell-based
[1] = test system: HepG2; assay: MTS cell viability assay, HepG2; details: Homo sapiens, Table 7, 72 hours, read-out: IC50 against HepG2
Protocol: (§1) Primary viability screening: (1) the synthesized compounds 3a to 13d were respectively dissolved in DMSO to prepare a 40 μg/mL cannabicyclol and cannabicyclol derivative solutions.
(§2) (2) A control group: a 200 μL DMSO solvent.
(§3) (3) The solutions of compounds 3a to 13d were diluted in a twofold gradient to obtain cannabicyclol and cannabicyclol derivative solutions at concentrations of 40 μg/mL, 20 μg/mL, 10 μg/mL, 5 μg/mL, 2.5 μg/mL, 1.25 μg/mL, and 0.625 μg/mL, and 0.3125 μg/mL, respectively.
(§4) (4) Three glioblastoma stem cells (GSC-3, GSC-12, and GSC-18), three pancreatic cancer cell-derived stem cells (PANC-1-CSC, BXPC-3-CSC, and ASPC1-CSC), three liver cancer cell-derived stem cells (HepG2-CSC, MHCC97H-CSC, and SMMC7721-CSC), HEK-293T cells, 16 tumor cells (U251, U87, T98G, PANC1, BXPC3, ASPC1, HepG2, MHCC97H, SMMC7721, PC3, SKOV3, MDA-MB231, A549, HCT116, HEC-1B, MKN28), and differentiated glioblastoma stem cells (GSC-3diff and GSC-12diff) derived from GSC-3 and GSC-12 (all of the cells were provided by the Laboratory of Tumor Animal Model Preparation and Application Research, West China Hospital, Sichuan University) were inoculated into a 96-well plate at a concentration of 2×10^4 cells/well, and 100 μL of culture medium was then added to each well; […]
(§5) (10) The absorbance value at 490 nm was measured on an enzyme labeling apparatus, and the IC50 value was calculated.

[2] = test system: PANC1; assay: MTS cell viability assay, PANC1; details: Homo sapiens, PANC-1; Table 7, 72 hours; read-out: IC50 against PANC1
Protocol: as §1, §2, §3, §4, §5

[3] = test system: GSC-18; assay: MTS cell viability assay, GSC-18; details: GSC18; Table 6, tumor stem cell, 72 hours; read-out: IC50 against GSC-18
Protocol: as §1, §2, §3, §4, §5

[4] = test system: glioblastoma cell line U251; assay: Soft agar colony (clone) formation, U251; details: crystal violet, FIG. 4, compound 3a 0, 5 and 5 [sic] μg/mL
Protocol: […] of low-melting-point agarose was dissolved in 12.5 mL of ddH2O to prepare a 3.2% low-melting-point agarose gel. The low-melting-point agarose gel was sterilized by autoclaving at 121° C. and 0.12 MPa for 20 minutes. After sterilization, the low-melting-point agarose gel was maintained at 60° C. in a drying oven for further use.
1.75 mL of 3.2% sterile low-melting-point agarose gel was taken, 5.25 mL of the corresponding complete medium was added, and the two were mixed thoroughly using a pipette to prepare a base gel at a concentration of 0.8%.
1 mL of the base gel was added to each well of a 6-well plate, ensuring that the base gel evenly covered the bottom of each well. The plate was placed at 4° C. for 5 minutes to allow the gel to solidify. After the gel had fully solidified, the plate was warmed at 37° C. for 5 minutes.
6 cells/cell lines (U251, SMMC7721, GSC-3, GSC-12, SMMC7721-CSC, and HepG2-CSC) were individually digested with 1× trypsin for 3 minutes. The corresponding complete culture medium (same as in the application example 1) was added to terminate the digestion. Cells were centrifuged at 1000 rpm for 3 minutes, and the cells were collected and counted. A total of 5×10^3 cells were added to each well, each group was set up with three replicates. […]

[5] = test system: MKN28; assay: MTS cell viability assay, MKN28; details: Homo sapiens, MKN-28; Table 7, 72 hours; read-out: IC50 against MKN28
Protocol: as §1, §2, §3, §4, §5

`CCCCCc1cc(O)c2c(c1)OC1(C)CCC3C1C2C3(C)C` (centres unmarked) [Compound 3a, cannabicyclol] was tested, and the IC50 [1] was over 40 µg/mL, the IC50 [2] was over 40 µg/mL and the IC50 [3] was 6.4 µg/mL (≈ 20.4 µM). The “colony formation of U251” value [4] was “significantly inhibited” and the IC50 [5] was over 40 µg/mL.
